{"source": "paper PMC7673538", "about": "(PLoS Biology, 2020)", "key": {"human NET": {"molecular_target": "T1, human NET (Homo sapiens, UniProt P23975)", "T1 construct": "expressed in transfected cells; host or cells: HEK293 (gift of Dr. Hoener, F. Hoffmann-La Roche)", "T1 sequence (P23975 whole entry)": "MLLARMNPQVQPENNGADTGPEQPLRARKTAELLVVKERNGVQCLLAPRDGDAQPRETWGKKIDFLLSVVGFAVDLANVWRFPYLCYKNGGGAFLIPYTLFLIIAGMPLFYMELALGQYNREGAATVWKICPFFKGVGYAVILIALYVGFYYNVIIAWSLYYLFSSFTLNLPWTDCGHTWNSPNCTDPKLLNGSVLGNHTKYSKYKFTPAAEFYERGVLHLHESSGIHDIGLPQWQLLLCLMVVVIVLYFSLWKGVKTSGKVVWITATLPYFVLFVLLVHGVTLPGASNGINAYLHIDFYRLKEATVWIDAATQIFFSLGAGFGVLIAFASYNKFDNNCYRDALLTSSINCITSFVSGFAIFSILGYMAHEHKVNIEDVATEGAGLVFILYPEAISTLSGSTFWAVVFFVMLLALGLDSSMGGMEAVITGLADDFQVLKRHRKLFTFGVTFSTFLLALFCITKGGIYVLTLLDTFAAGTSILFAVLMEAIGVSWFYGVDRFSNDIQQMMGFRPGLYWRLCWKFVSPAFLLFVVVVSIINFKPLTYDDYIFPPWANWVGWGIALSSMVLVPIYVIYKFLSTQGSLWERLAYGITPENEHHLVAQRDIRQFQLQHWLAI", "assay_type": "cell-based", "details": "for NET, Mean (Figure 8B): Control = 100; for NET, Mean as % (Figure 8B): Control = 100%"}, "EV-D68": {"test_system": "EV-D68", "test": "microbe, parasite or virus in culture", "assay_type": "cell-based, enterovirus D68"}, "HRV-A2": {"test_system": "HRV-A2", "test": "microbe, parasite or virus in culture", "assay_type": "cell-based, human rhinovirus"}, "CV-A24": {"test_system": "CV-A24", "test": "microbe, parasite or virus in culture", "assay_type": "cell-based, coxsackievirus A24", "details": "Enterovirus C, CVA24, HeLa R19, read-out: EC50 CV-A24"}, "CV-A24v": {"test_system": "CV-A24v", "test": "microbe, parasite or virus in culture", "assay_type": "cell-based, coxsackievirus A24v"}, "PV-1": {"test_system": "PV-1", "test": "microbe, parasite or virus in culture", "assay_type": "cell-based, poliovirus 1"}}, "note": "Several values for one entry are separate records, joined by “and”; a condition that tells them apart may be missing. Equal values may be shown once. Read-outs that look alike come from different tables or passages of the source.", "data": [{"smiles": "O=C(c1cc[nH]c1)N(Cc1ccc(F)cc1)c1ccccc1", "note": "[Compound 12b, N-(4-Fluorobenzyl)-N-phenyl-1H-pyrrole-3-carboxamide]", "values": [{"measurement": "NET, Mean (Figure 8B)", "setting": "human NET; 1µM", "result": 100}, {"measurement": "NET, Mean as % (Figure 8B)", "setting": "human NET; 1µM", "result": 100, "unit": "%"}, {"measurement": "NET, Mean (Figure 8B)", "setting": "human NET; 100µM", "result": 103.417}, {"measurement": "NET, Mean as % (Figure 8B)", "setting": "human NET; 100µM", "result": 103, "unit": "%"}, {"measurement": "inhibition of NET function (in words)", "setting": "human NET; HEK293 cells expressing human NET, 1 μM or 100 μM", "result": "neither 12a, 19b, 19d, nor the combined compound 12b inhibited"}, {"measurement": "Figure 7 dose-response raw data, EV-D68 (triplicate values)", "setting": "EV-D68; Concentration 0.001 µM", "result": "11.1333 and 12.4782 and 12.9265"}, {"measurement": "Figure 7 dose-response raw data, EV-D68 (triplicate values)", "setting": "EV-D68; Concentration 0.0046 µM", "result": "12.1793 and 12.9265 and 15.0187"}, {"measurement": "Figure 7 dose-response raw data, EV-D68 (triplicate values)", "setting": "EV-D68; Concentration 0.0137 µM", "result": "11.1333 and 12.4782 and 12.9265"}, {"measurement": "Figure 7 dose-response raw data, EV-D68 (triplicate values)", "setting": "EV-D68; Concentration 0.0412 µM", "result": "10.386 and 11.4321 and 12.9265"}, {"measurement": "Figure 7 dose-response raw data, EV-D68 (triplicate values)", "setting": "EV-D68; Concentration 0.1235 µM", "result": "107.007 and 105.506 and 109.76"}, {"measurement": "Figure 7 dose-response raw data, EV-D68 (triplicate values)", "setting": "EV-D68; Concentration 0.3704 µM", "result": "98.999 and 100.501 and 112.888"}, {"measurement": "Figure 7 dose-response raw data, EV-D68 (triplicate values)", "setting": "EV-D68; Concentration 1.1111 µM", "result": "104.38 and 102.252 and 111.637"}, {"measurement": "Figure 7 dose-response raw data, EV-D68 (triplicate values)", "setting": "EV-D68; Concentration 3.3333 µM", "result": "103.504 and 113.389"}, {"measurement": "Figure 7 dose-response raw data, EV-D68 (triplicate values)", "setting": "EV-D68; Concentration 10 µM", "result": "95.6204 and 100.626 and 112.763"}, {"measurement": "EC50", "setting": "EV-D68; Enterovirus D, EVD68, HeLa R19, read-out: EC50 EV-D68", "result": "86 ± 7.1", "unit": "nM"}, {"measurement": "EC50", "setting": "EV-D68; Enterovirus D, EVD68, HeLa R19, read-out: Table in Figure 7A, EVD68, AVERAGE", "result": 85.7, "unit": "nM"}, {"measurement": "EC50", "setting": "EV-D68; Enterovirus D, EVD68, HeLa R19, read-out: Table in Figure 7A, EVD68, exp1-exp3", "result": 88, "unit": "nM"}, {"measurement": "EC50", "setting": "EV-D68; read-out: Table in Figure 7A, EVD68, exp1-exp3", "result": "93 nM and 76 nM"}, {"measurement": "Figure 7 dose-response raw data, HRV-A2 (triplicate values)", "setting": "HRV-A2; Concentration 0.0046 µM", "result": "14.2402 and 14.6225 and 13.0933"}, {"measurement": "Figure 7 dose-response raw data, HRV-A2 (triplicate values)", "setting": "HRV-A2; Concentration 0.0137 µM", "result": "14.2402 and 14.6225 and 13.0933"}, {"measurement": "Figure 7 dose-response raw data, HRV-A2 (triplicate values)", "setting": "HRV-A2; Concentration 0.0412 µM", "result": "15.1004 and 21.3125 and 13.3801"}, {"measurement": "Figure 7 dose-response raw data, HRV-A2 (triplicate values)", "setting": "HRV-A2; Concentration 0.1235 µM", "result": "12.6155 and 13.1889 and 12.7111"}, {"measurement": "Figure 7 dose-response raw data, HRV-A2 (triplicate values)", "setting": "HRV-A2; Concentration 0.3704 µM", "result": "13.0933 and 13.1889 and 13.7623"}, {"measurement": "Figure 7 dose-response raw data, HRV-A2 (triplicate values)", "setting": "HRV-A2; Concentration 1.1111 µM", "result": "12.6155 and 14.1446 and 14.4314"}, {"measurement": "Figure 7 dose-response raw data, HRV-A2 (triplicate values)", "setting": "HRV-A2; Concentration 3.3333 µM", "result": "83.2845 and 84.4313 and 84.7181"}, {"measurement": "Figure 7 dose-response raw data, HRV-A2 (triplicate values)", "setting": "HRV-A2; Concentration 11.1111 µM", "result": "99.5652 and 104.147 and 110.034"}, {"measurement": "Figure 7 dose-response raw data, HRV-A2 (triplicate values)", "setting": "HRV-A2; Concentration 33.3333 µM", "result": "100.093 and 102.52 and 105.578"}, {"measurement": "Figure 7 dose-response raw data, HRV-A2 (triplicate values)", "setting": "HRV-A2; Concentration 100 µM", "result": "100.093 and 102.52 and 105.578"}, {"measurement": "EC50", "setting": "HRV-A2; Human rhinovirus sp., HRV2 / HRVA2, HeLa R19, read-out: Table in Figure 7A, HRV2, AVERAGE", "result": 2750, "unit": "nM"}, {"measurement": "EC50", "setting": "HRV-A2; Human rhinovirus sp., HRV2 / HRVA2, HeLa R19, read-out: Table in Figure 7A, HRV2, exp1-exp3", "result": 2760, "unit": "nM"}, {"measurement": "EC50", "setting": "HRV-A2; read-out: Table in Figure 7A, HRV2, exp1-exp3", "result": "3210 nM and 2280 nM"}, {"measurement": "EC50", "setting": "CV-A24", "result": "1330 ± 240", "unit": "nM"}, {"measurement": "Figure 7 dose-response raw data, CV-A24v (triplicate values)", "setting": "CV-A24v; Concentration 0.0046 µM", "result": "11.045 and 11.5939"}, {"measurement": "Figure 7 dose-response raw data, CV-A24v (triplicate values)", "setting": "CV-A24v; Concentration 0.0137 µM", "result": "14.0988 and 16.3593 and 16.4783"}, {"measurement": "Figure 7 dose-response raw data, CV-A24v (triplicate values)", "setting": "CV-A24v; Concentration 0.0412 µM", "result": "14.0988 and 16.3593 and 16.4783"}, {"measurement": "Figure 7 dose-response raw data, CV-A24v (triplicate values)", "setting": "CV-A24v; Concentration 0.1235 µM", "result": "14.8126 and 12.909 and 19.2147"}, {"measurement": "Figure 7 dose-response raw data, CV-A24v (triplicate values)", "setting": "CV-A24v; Concentration 0.3704 µM", "result": "14.8126 and 13.6228 and 22.1892"}, {"measurement": "Figure 7 dose-response raw data, CV-A24v (triplicate values)", "setting": "CV-A24v; Concentration 1.1111 µM", "result": "14.8126 and 13.6228 and 22.1892"}, {"measurement": "Figure 7 dose-response raw data, CV-A24v (triplicate values)", "setting": "CV-A24v; Concentration 3.3333 µM", "result": "106.3 and 102.374 and 110.232"}, {"measurement": "Figure 7 dose-response raw data, CV-A24v (triplicate values)", "setting": "CV-A24v; Concentration 11.1111 µM", "result": "105.473 and 108.334 and 112.487"}, {"measurement": "Figure 7 dose-response raw data, CV-A24v (triplicate values)", "setting": "CV-A24v; Concentration 33.3333 µM", "result": "98.3206 and 97.0611 and 97.1756"}, {"measurement": "Figure 7 dose-response raw data, CV-A24v (triplicate values)", "setting": "CV-A24v; Concentration 100 µM", "result": "82.2926 and 86.3728 and 89.8506"}, {"measurement": "EC50", "setting": "CV-A24v; Coxsackievirus, HeLa R19, read-out: Table in Figure 7A, CVA24v, AVERAGE", "result": 1340, "unit": "nM"}, {"measurement": "EC50", "setting": "CV-A24v; Coxsackievirus, HeLa R19, read-out: Table in Figure 7A, CVA24v, exp1-exp3", "result": 1110, "unit": "nM"}, {"measurement": "EC50", "setting": "CV-A24v; read-out: Table in Figure 7A, CVA24v, exp1-exp3", "result": "1230 nM and 1670 nM"}, {"measurement": "Figure 7 dose-response raw data, PV-1 (triplicate values)", "setting": "PV-1; Concentration 0.0046 µM", "result": "11.045 and 11.5939"}, {"measurement": "Figure 7 dose-response raw data, PV-1 (triplicate values)", "setting": "PV-1; Concentration 0.0137 µM", "result": "11.045 and 11.5939"}, {"measurement": "Figure 7 dose-response raw data, PV-1 (triplicate values)", "setting": "PV-1; Concentration 0.0412 µM", "result": "11.045 and 11.8683 and 12.5543"}, {"measurement": "Figure 7 dose-response raw data, PV-1 (triplicate values)", "setting": "PV-1; Concentration 0.1235 µM", "result": "9.9474 and 11.3195 and 12.0055"}, {"measurement": "Figure 7 dose-response raw data, PV-1 (triplicate values)", "setting": "PV-1; Concentration 0.3704 µM", "result": "13.3775 and 12.0055 and 11.7311"}, {"measurement": "Figure 7 dose-response raw data, PV-1 (triplicate values)", "setting": "PV-1; Concentration 1.1111 µM", "result": "20.2378 and 15.8472 and 16.3961"}, {"measurement": "Figure 7 dose-response raw data, PV-1 (triplicate values)", "setting": "PV-1; Concentration 3.3333 µM", "result": "109.849 and 103.263 and 104.772"}]}]}
